Assay results reported in patent US20100063085A1, “METHOD OF TREATING LEARNING IMPAIRMENT IN DOWN'S SYNDROME SUBJECTS” (University Court of The University of Dundee, priority 2008, published 2010).
Read-outs that look alike come from different tables or passages of the source.

Columns and labels:
Assay type in all cases: biochemical
MAPKAP-K1b = MAPKAP-K1b (Homo sapiens, UniProt P51812); test: MAPKAP-K1b 33P kinase assay; conditions: read-out: MAPKAP-K1b activity as percentage of control without inhibitor
Method: (§1) All assays (25.5 μl) were carried out at room temperature (21° C.) and were linear with respect to time and enzyme concentrations under the conditions used. Assays were performed for 30 minutes except assays for LCK and PKB which were performed for 15 minutes using Multidrop Micro reagent dispensers (Thermo Electron Corporation, Waltham, Mass. 02454, USA) in a 96-well format. The concentration of […] [γ-^33P] ATP (800 cpm/pmol) in the assays was one of three concentrations (5, 20 or 50 μM) in order to be at or below Km for ATP for the enzyme. Assays were initiated with MgATP and stopped by addition of 5 μl of 0.5M orthophosphoric acid. Assays were then harvested onto P81 filterplates using a unifilter harvester (PerkinElmer, Boston, Mass. 02118, USA), with a wash buffer of 50 mM orthophosphoric acid. Filterplates were then air dried overnight. 10 μl of Microscint O was added per well prior to counting for radioactivity.
(§2) MKK1, JNK/SAPK1c, SAPK2a/p38, SAPK2b/p38β2, SAPK3/p38γ, SAPK4/p38δ, MAPK2/ERK2, MAPKAP-K1β, MAPKAP-K2, MSK1, PRAK, PKA, PKCα, PDK1, SGK, p70S6K, GSK3β, ROCK-II, PRK2, AMPK, CHK1, CHK2, CK2, PHK, LCK, were assayed according to Davies et al., (Davies, S. P., Reddy, H., Caivano, M. and Cohen, P. Biochem. J. 351, 95-105, 2000.
(§3) CSK and CDK2/cyclinA, were assayed according to Bain et al. (Bain J, McLauchlan H, Elliott M, Cohen P. Biochem J. 371, 199-204, 2003., except that ATP concentrations were either 5, 20 or 50 micromolar so that they were at or below the Km for ATP. The ATP concentrations used were as follows, 5 μM for assays of MKK1, SAPK3, SAPK4, GSK3β, PRK2 CK2 20 μm for assays of JNK, SAPK2β, MAPKAP-K2, MSK1, PRAK, PKA, […], PDK1, SGK, p70S6K, ROCK-II, CHK1, CHK2, CSK, CDK2, and 50 μM for assays of SAPK2a, MAPK2/ERK2, AMPK, LCK, PHK and MAPKAP-K1β.

smMLCK = smMLCK (Homo sapiens, UniProt Q15746); test: smMLCK 33P kinase assay; conditions: read-out: smMLCK activity as percentage of control without inhibitor
Method: as §1
smMLCK (5-20 mU) diluted in 50 mM Hepes pH 7.5, 0.1 mM EGTA, 1 mg.ml BSA, 0.1% β-mercaptoethanol is assayed against substrate peptide […] in an incubation containing 50 mM Hepes pH 7.5, 0.1 mM EGTA, 5 mM CaCl2, 10 μM calmodulin, 300 μM substrate peptide, 10 mM magnesium acetate and 0.05 mM [^33P-γ-ATP] (500-1000 cpm/pmole).

SGK = target: T1, SGK (Homo sapiens, UniProt O00141); test: SGK 33P kinase assay; conditions: read-out: SGK activity as percentage of control without inhibitor
T1 sequence (O00141 1-431): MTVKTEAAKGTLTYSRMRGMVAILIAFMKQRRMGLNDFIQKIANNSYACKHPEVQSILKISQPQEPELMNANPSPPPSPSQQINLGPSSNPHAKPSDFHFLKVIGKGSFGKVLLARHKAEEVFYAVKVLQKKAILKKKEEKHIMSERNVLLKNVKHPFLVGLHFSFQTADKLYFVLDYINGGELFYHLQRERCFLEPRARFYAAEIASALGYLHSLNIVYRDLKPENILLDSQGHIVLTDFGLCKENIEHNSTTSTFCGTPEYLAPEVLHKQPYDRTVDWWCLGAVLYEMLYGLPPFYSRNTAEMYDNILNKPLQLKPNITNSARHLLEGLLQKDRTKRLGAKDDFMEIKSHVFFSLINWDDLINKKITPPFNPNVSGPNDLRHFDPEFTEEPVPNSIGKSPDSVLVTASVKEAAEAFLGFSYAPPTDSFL
Method: as §1, §2, §3

MSK1 = MSK1 (Homo sapiens, UniProt O75582); test: MSK1 33P kinase assay; conditions: read-out: MSK1 activity as percentage of control without inhibitor
Method: as §1, §2, §3

CHK2 = CHK2 (Homo sapiens, UniProt O96017); test: CHK2 33P kinase assay; conditions: read-out: CHK2 activity as percentage of control without inhibitor
Method: as §1, §2, §3

PDK1 = target: T2, PDK1 (Homo sapiens, UniProt O15530); test: PDK1 33P kinase assay; conditions: for remaining activity at 1 µM: inhibitor 1 μM, read-out: PDKI activity as percentage of control without inhibitor; for remaining activity at 10 µM: inhibitor 10 μM, read-out: PDK1 activity as percentage of control without inhibitor
T2 sequence (O15530 1-556): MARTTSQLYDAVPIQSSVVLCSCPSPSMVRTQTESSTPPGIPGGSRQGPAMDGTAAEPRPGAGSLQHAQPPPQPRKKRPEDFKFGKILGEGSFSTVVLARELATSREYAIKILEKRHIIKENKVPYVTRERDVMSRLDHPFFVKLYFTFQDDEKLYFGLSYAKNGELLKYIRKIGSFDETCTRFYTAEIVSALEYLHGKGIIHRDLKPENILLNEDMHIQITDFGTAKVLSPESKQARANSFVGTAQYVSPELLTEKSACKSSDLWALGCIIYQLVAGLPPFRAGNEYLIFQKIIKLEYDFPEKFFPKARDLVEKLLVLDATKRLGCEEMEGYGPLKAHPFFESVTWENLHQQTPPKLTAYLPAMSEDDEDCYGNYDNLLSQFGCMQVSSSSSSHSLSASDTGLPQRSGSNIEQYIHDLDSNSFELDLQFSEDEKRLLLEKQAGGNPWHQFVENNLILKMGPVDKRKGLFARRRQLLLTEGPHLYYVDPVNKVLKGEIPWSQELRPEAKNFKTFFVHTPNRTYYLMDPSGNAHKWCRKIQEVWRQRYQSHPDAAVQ
Method: as §1, §2, §3

CK2 = CK2 33P kinase assay
Method: as §1, §2, §3

Sequence of MSK1 (O75582 whole entry, species assumed): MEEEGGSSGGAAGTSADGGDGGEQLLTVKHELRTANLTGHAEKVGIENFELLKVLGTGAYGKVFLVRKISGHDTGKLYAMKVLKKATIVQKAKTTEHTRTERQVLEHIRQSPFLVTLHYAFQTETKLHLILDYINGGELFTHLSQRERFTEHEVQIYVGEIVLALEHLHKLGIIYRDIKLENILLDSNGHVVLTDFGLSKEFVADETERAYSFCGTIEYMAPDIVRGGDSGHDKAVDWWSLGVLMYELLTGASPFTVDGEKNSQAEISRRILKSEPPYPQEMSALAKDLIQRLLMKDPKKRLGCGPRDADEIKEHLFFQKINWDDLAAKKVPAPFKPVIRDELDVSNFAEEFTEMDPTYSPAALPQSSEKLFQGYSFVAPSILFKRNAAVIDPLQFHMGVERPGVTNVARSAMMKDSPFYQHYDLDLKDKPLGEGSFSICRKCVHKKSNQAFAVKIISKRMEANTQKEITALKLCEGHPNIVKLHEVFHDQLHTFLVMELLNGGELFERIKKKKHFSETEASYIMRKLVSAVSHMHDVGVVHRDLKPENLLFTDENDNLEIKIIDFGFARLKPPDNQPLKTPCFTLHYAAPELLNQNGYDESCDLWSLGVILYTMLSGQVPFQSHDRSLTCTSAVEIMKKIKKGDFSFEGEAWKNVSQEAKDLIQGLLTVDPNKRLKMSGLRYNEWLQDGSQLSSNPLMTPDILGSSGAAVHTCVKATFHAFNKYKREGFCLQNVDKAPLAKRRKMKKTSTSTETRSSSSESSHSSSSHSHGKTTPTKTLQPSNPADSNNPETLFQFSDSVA
Sequence of MAPKAP-K1b (P51812 whole entry, species assumed): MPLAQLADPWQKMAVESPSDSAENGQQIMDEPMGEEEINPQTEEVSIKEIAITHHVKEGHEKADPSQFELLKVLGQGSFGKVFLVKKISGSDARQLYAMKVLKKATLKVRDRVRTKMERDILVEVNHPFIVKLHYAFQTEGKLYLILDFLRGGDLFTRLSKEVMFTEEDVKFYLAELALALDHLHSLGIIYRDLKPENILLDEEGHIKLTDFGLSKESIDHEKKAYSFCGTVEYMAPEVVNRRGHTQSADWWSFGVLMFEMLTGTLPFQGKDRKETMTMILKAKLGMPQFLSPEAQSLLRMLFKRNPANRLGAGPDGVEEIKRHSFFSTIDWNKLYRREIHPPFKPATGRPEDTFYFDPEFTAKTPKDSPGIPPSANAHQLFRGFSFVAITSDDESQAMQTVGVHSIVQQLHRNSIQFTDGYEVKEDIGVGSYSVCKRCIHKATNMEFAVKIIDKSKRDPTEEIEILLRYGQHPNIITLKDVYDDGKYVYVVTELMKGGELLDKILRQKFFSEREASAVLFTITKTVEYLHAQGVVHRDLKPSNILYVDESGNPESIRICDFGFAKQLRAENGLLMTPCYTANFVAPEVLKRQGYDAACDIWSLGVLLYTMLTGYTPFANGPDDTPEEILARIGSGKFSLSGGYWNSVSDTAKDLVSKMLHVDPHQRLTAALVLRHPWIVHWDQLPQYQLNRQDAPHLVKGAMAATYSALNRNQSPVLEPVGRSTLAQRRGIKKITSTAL
Sequence of CHK2 (O96017 whole entry, species assumed): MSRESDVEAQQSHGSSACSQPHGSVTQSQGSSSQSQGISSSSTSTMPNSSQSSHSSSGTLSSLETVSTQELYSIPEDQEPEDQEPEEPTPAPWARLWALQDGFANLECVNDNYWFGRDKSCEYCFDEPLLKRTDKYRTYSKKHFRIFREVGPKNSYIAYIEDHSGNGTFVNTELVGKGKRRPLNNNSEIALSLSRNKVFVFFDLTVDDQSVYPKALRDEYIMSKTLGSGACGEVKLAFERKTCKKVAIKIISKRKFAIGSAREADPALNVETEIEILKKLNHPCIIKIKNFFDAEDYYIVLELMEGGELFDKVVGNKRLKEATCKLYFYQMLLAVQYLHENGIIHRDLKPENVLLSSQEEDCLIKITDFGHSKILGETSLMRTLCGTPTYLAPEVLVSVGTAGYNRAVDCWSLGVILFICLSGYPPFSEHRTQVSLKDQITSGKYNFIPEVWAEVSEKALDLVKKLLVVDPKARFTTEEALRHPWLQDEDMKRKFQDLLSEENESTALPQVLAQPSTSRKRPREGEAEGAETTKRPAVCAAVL

Row | SMILES | remaining activity at 1 µM (PDK1) [%] | remaining activity at 10 µM (PDK1) [%] | CK2 activity as percentage of control without inhibitor (CK2; inhibitor 1 μM) [%] | CK2 activity as percentage of control without inhibitor (CK2; inhibitor 10 μM) [%] | remaining activity at 1 µM (MAPKAP-K1b; inhibitor 1 μM) [%] | remaining activity at 10 µM (MAPKAP-K1b; inhibitor 10 μM) [%] | remaining activity at 1 µM (smMLCK; inhibitor 1 μM) [%] | remaining activity at 10 µM (smMLCK; inhibitor 10 μM) [%] | remaining activity at 1 µM (SGK; inhibitor 1 μM) [%] | remaining activity at 10 µM (SGK; inhibitor 10 μM) [%] | remaining activity at 1 µM (MSK1; inhibitor 1 μM) [%] | remaining activity at 10 µM (MSK1; inhibitor 10 μM) [%] | remaining activity at 1 µM (CHK2; inhibitor 1 μM) [%] | remaining activity at 10 µM (CHK2; inhibitor 10 μM) [%] | also measured
1 | COc1ccc2c(c1)[nH]c1c(C)nccc12 [Harmine] | 89 | 95 | 82 | 41 | – | – | – | – | – | – | – | – | – | – | remaining activity at 1 µM (MAPKAP-K1b): 89%; remaining activity at 10 µM (MAPKAP-K1b): 95%; remaining activity at 1 µM (smMLCK): 88%; remaining activity at 10 µM (smMLCK): 76%; remaining activity at 1 µM (SGK): 66%; remaining activity at 10 µM (SGK): 62%; remaining activity at 1 µM (MSK1): 90%; remaining activity at 10 µM (MSK1): 88%; remaining activity at 1 µM (CHK2): 78%; remaining activity at 10 µM (CHK2): 79%
2 | COc1ccc2c3c([nH]c2c1)C(C)=NCC3 [Harmaline] | 100 | 95 | 94 | 88 | 87 | 80 | 92 | 104 | 14 | 84 | 98 | 111 | 89 | 89 | –
3 | CC1=NCCc2c1[nH]c1cc(O)ccc21 [Harmalol] | 88 | 96 | 55 | 12 | 87 | 67 | 76 | 71 | 62 | 45 | 84 | 59 | 76 | 57 | –
